Patent US6458781B1, “Substituted diarylalkyl amides as calcium channel antagonists” (priority 1998, dated 2002)
Structures can show the parent of a compound that is named as a salt.

Key:
[1] = target: T1, L-type calcium channels in A10 cells (Rattus norvegicus, UniProt P22002); assay: L-type Ca2+ channel blocking potency in A10 cells (FLIPR); type: cell-based; settings: read-out: FLPA10 IC50
T1 construct: which endogenously expresses L-type calcium channels; host or cells: A10 rat embryonic thoracic aorta smooth muscle cells
Method: Measurement of L-type Ca^2+ Channel Blocking Potencies of Compounds in A10 Cells
Calcium flux through voltage-sensitive calcium channels was assessed by time-resolved monitoring of the fluorescence of pre-loaded calcium-sensitive dyes using FLIPR, a fluorescent image plate reader (Molecular Devices Co.). The A10 smooth muscle cell line derived from embryonic thoracic aorta of the DBIX rat (ATCC, CRL-1476) which endogenously expresses L-type calcium channels. The growth media for A10 cells was Ham's F12/DME high glucose (Irvine Scientific, 9052), supplemented with 20% fetal bovine serum (HyClone Labs, A-1115-L), and 1% each of L-glutamine and antibiotic-antimycotic (same source as above).
Cells were grown to confluency and replated on black-sided 96-well plates (Costar, 3603) for use in FLIPR. Two days after replating, growth media was removed and cells were loaded at 37° C. with 100 μL media containing 1 μM Oregon Green 488 Bapta-1 dye (Molecular Probes, O-6807) for 1 to 3 hours. The dye-containing media was then washed away with buffer (composition in mM: 1.25 CaCl2, 1.2 MgSO4, 11 glucose, 10 HEPES, 3.0 KCl, 137.0 NaCl, pH 7.4 with Tris base) in a Denley Cellwash (Labsystems, CW018B). The residual buffer volume was adjusted to 50 μL. A 5 minute drug-pre-incubation period at 35° C. was initiated when 50 μL of drug-containing buffer was pipetted into the cell plate with the 96-well pipettor integrated in the FLIPR apparatus. Fluorescent counts were monitored at 20 second intervals for 360 seconds, beginning 60 seconds prior to the delivery of drug-containing buffer. Following drug addition, 100 μL aliquots of a high K^+, depolarizing stimulus (composition in mM: 1.25 CaCl2, 1.2 MgSO4, 11 glucose, 10 HEPES, 140.0 KCl, pH 7.4 with Tris base) were added to each well, and fluorescence was monitored at 1 second intervals for 120 seconds beginning 10 seconds prior to the stimulus addition. CCD camera exposure time was 0.4 seconds, laser excitation was at 488 nm with a power of 0.2-0.5W, and a 510 to 560 nm bandpass interference filter preceded the camera.
Data was analyzed as a summation of fluorescent counts above basal during the stimulation period (an approximation of area under the curve), after normalizing the data with a spatial uniformity correction (for variations in laser illumination and cell density) and a negative control correction (zero calcium increase defined as the fluorescence reading in the presence of saturating pharmacologic block of the respective calcium channel). Drug effects were expressed as percent inhibition of fluorescence from an average of 8 K^+-stimulated wells which were pre-treated in the drug incubation period with buffer only. In the A10 cells, the pharmacologic agent used to define zero calcium influx was nitrendipine (RBI, N-144) at a final concentration of 1.0×10^−6 M.

[2] = target: T2, N-type calcium channels in IMR-32 cells (Homo sapiens, UniProt Q00975); assay: N-type Ca2+ channel blocking potency in IMR-32 cells using Indo-1; type: cell-based; settings: for IC50: IMR-32 cells, estimated from two data points, read-out: IMR32 IC50 (estimated IC50 values based on two data points); for inhibition at 1 µM / inhibition at 10 µM: IMR-32, IMR-32 cells; for inhibition at 1 µM: read-out: IMR32 % blockage at 1 μM; for inhibition at 10 µM: read-out: IMR32 % blockage at 10 μM
T2 construct: host or cells: IMR-32 cells differentiated with dibutyryl cAMP and bromodeoxyuridine
Method: Measurement of N-type Ca^2+ Channel Blocking Potencies of Compounds in IMR-32 Cells Using the Fluorescent Ca^2+ Indicator Indo-1
IMR-32 cells are a human tumoral cell line of neural origin. […] Calcium flux into these cells may be induced by stimulation with elevated potassium concentrations. The L-channel component of calcium flux may be blocked by adding 5 μM nitrendipine. The remaining component of calcium entry into the IMR-32 cells is due to calcium flux through N-type calcium channels. Intracellular calcium concentrations are measured using the fluorescent calcium indicator Indo-1. The effect of drug concentration on calcium uptake is studied.
The IMR-32 cell line was obtained from the American Type Culture Collection (Rockville, Md.). Cells were grown in Eagle's Minimum Essential Medium with Earle's salts supplemented with 10% fetal bovine serum, 2 mM L-Gln and antibiotic/antimycotic mixture (Gibco). At approximately 80% confluency, differentiation was induced by the addition of 1 mM dibutyryl cAMP and 2.5 μM bromodeoxyuridine to the medium. After 7 to 13 days of differentiation, cells were detached using 0.5 mM EDTA and loaded with 5 μM Indo-1 acetoxymethyl ester (Molecular Probes, Eugene, Oreg.) at 30° C. for 45 minutes. Loaded cells were washed twice, resuspended (˜10^7 cells/mL) in assay buffer (10 mM HEPES/Tris pH 7.4 in Hank's Balanced Salt Solution without bicarbonate or phenol red containing 0.5% bovine serum albumin) and kept on ice until use. Fluorescence measurements were carried out in a Photon Technology International (PTI, South Brunswick, N.J.) Model RF-F3004 spectrofluorometer with dual emission monochromators using excitation at 350 nm and emission at 400 and 490 nm. The instrument was equipped with a thermostated cuvette holder with stirring capabilities as well as with a computer-controlled pump which allowed for reagent addition during measurement. Instrument control and data collection was done by PTI's OSCAR software running on an IBM compatible computer. Different concentrations of the test compounds (60 μL in dimethyl sulfoxide) were added to 5.94 mL of assay buffer containing approximately 3×10^6 loaded cells, and 5 μM Nitrendipine (in 30 μL EtOH) to block L-type Ca^2+ channels. Samples were incubated for 10 minutes at 30° C. and the aliquot into three 10×10 mm disposable acrylic cuvettes. Emission signals at 400 and 490 nm were acquired from each cuvette at 30° C. for 50 seconds. At 20 seconds after the start of reading, cells were depolarized by the addition of 160 μL of stimulation solution (1 M KCl, 68 mM CaCl2) to the cuvette via the computer-controlled pump. Ratio of dual emission signals (400/490 nm), which is proportional to intracellular Ca^2+ concentration, was plotted against time, and the difference between maximal response after stimulation and basal value (before stimulation) was determined. Values obtained in this way were plotted as a function of drug concentration. IC50 values of test compounds were calculated by fitting a four-parameter logistic function to the data using the least squares method.

T1 sequence (P22002 whole entry): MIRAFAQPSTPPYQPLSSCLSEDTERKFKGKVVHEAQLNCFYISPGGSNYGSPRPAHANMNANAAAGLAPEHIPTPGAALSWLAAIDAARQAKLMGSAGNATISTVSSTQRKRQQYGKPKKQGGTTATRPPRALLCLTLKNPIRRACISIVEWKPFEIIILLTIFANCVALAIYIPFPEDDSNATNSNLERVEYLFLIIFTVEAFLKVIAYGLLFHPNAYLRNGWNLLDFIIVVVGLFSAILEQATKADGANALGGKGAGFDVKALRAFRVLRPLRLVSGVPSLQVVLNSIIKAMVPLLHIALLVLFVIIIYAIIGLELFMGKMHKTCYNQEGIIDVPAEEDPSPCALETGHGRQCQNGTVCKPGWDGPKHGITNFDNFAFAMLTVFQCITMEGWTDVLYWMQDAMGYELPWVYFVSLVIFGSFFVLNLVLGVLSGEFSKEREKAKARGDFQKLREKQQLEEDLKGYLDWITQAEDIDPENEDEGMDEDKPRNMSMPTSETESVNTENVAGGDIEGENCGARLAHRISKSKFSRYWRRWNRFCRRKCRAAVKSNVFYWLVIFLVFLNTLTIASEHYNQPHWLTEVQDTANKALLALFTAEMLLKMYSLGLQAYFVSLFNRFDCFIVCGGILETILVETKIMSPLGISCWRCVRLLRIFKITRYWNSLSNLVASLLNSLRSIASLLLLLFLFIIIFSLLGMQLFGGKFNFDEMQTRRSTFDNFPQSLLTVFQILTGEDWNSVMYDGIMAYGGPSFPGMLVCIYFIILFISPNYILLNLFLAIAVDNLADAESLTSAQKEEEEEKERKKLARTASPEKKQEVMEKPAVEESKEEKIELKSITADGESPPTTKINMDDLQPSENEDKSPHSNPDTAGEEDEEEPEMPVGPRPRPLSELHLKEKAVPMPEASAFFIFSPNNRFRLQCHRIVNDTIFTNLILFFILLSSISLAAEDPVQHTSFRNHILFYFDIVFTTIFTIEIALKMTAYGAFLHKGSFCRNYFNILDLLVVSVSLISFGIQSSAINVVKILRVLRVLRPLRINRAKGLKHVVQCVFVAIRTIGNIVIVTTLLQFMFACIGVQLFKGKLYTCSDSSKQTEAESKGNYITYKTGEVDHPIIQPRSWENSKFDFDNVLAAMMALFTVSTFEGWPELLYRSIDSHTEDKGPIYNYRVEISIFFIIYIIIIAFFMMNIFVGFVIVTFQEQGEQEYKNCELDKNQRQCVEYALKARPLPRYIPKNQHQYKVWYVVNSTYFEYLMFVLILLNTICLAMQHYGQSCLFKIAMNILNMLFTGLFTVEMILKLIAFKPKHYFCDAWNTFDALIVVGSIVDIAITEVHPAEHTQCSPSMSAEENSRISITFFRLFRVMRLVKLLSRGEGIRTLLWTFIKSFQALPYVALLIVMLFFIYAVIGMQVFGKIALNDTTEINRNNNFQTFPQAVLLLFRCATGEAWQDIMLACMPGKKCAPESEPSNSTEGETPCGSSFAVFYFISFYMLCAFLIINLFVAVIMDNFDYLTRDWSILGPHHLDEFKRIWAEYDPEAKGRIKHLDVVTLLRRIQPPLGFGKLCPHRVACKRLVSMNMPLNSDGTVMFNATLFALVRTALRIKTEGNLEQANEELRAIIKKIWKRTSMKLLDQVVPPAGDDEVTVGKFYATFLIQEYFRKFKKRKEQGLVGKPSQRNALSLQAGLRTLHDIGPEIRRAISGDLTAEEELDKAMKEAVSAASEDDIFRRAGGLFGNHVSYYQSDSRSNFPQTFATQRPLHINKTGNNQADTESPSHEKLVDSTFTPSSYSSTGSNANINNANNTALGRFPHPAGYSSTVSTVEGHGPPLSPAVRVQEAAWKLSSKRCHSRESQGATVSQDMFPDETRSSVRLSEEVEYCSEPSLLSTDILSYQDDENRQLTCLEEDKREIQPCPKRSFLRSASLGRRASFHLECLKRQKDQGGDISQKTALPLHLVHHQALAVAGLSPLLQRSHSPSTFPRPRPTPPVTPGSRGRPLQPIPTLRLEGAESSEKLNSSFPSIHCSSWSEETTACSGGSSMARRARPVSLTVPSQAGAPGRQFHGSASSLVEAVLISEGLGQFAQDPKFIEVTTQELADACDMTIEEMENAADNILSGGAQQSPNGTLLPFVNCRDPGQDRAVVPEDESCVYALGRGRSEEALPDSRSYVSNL
T1 sequence (P54290 25-944 partner limits assumed): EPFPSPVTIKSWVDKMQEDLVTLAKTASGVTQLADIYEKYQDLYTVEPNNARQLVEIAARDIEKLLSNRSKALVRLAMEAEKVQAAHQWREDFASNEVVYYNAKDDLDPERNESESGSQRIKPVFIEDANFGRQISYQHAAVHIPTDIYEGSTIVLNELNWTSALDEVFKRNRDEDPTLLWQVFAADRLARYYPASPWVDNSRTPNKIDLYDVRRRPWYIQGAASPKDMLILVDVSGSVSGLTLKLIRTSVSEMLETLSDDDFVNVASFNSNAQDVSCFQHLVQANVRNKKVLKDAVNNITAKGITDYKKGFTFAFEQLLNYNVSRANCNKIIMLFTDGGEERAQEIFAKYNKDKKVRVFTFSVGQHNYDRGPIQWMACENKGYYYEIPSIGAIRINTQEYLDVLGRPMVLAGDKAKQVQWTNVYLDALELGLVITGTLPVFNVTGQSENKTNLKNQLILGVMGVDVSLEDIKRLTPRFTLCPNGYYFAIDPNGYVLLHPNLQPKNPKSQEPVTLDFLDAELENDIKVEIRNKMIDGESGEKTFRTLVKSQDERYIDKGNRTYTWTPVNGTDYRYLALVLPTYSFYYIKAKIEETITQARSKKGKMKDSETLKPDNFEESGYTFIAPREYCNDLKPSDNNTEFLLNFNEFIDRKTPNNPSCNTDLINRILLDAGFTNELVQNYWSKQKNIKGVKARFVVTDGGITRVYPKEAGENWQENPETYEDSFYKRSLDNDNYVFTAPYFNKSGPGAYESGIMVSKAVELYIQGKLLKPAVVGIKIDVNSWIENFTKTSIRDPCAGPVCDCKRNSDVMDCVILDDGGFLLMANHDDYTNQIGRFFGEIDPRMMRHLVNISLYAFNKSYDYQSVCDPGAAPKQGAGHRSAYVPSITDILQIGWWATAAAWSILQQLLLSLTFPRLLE
T1 sequence (P54290 945-1091 partner limits assumed): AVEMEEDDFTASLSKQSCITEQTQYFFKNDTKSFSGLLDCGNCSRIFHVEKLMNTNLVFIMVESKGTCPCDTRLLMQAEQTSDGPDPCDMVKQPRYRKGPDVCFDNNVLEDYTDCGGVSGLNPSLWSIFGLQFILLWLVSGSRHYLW
T1 sequence (P54287 whole entry partner): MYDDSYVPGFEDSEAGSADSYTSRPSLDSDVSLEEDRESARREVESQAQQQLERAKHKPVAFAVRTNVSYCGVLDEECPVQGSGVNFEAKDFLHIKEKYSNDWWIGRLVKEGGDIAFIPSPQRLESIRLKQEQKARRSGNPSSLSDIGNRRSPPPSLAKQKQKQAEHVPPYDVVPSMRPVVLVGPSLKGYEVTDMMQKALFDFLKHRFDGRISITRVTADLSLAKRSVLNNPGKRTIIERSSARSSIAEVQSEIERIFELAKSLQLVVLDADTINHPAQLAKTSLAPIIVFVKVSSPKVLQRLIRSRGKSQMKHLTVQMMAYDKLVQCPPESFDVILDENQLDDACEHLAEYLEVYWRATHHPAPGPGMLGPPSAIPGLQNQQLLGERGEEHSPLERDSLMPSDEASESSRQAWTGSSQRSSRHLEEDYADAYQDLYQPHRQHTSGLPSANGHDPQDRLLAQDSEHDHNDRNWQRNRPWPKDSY

| SMILES | IC50 [1] [nM] | IC50 [2] [nM] | inhibition at 1 µM [2] [%] | inhibition at 10 µM [2] [%] |
| --- | --- | --- | --- | --- |
| CC(C)C[C@@H](NC(=O)N1CCCCCC1)C(=O)NCCCC(c1ccc(F)cc1)c1ccc(F)cc1 [Example 2, (R)-Azepane-1-carboxylic acid {1-[4,4-bis-(4-fluoro-phenyl)-butylcarbamoyl]-3-methyl-butyl}-amide] | 290 | – | – | – |
| CC(C)C[C@H](NC1CCOCC1)C(=O)NCCCC(c1ccc(F)cc1)c1ccc(F)cc1 [Example 18, (S)-4-Methyl-2-(tetrahydro-pyran-4-ylamino)-pentanoic acid [4,4-bis-(4-fluoro-phenyl)-butyl]-amide] | 570 | 2000 | – | – |
| CC(C)C[C@H](NC(C)C)C(=O)NCCCC(c1ccc(F)cc1)c1ccc(F)cc1 [Example 19, (S)-2-Isopropylamino-4-methyl-pentanoic acid [4,4-bis-(4-fluoro-phenyl)-butyl]-amide monohydrochloride] | 660 | 1100 | – | – |
| CC(C)C[C@@H](C(=O)NCCCC(c1ccc(F)cc1)c1ccc(F)cc1)N(C)C [Example 20, (S)-2-Dimethylamino-4-methyl-pentanoic acid [4,4-bis-(4-fluoro-phenyl)-butyl]-amide monohydrochloride] | 470 | – | 25 | 92 |
| CC(C)C[C@@H](C(=O)NCCCC(c1ccc(F)cc1)c1ccc(F)cc1)N(C)C1CCCCC1 [Example 21, (S)-2-(Cyclohexyl-methyl-amino)-4-methyl-pentanoic acid [4,4-bis-(4-fluoro-phenyl)-butyl]-amide monohydrochloride] | 270 | – | 71 | 94 |
| CC(C)C[C@@H](C(=O)NCCCC(c1ccc(F)cc1)c1ccc(F)cc1)N1CCOCC1 [Example 23, (S)-4-Methyl-2-morpholin-4-yl-pentanoic acid [4,4-bis-(4-fluoro-phenyl)-butyl]-amide monohydrochloride] | 130 | – | 35 | 89 |
| CC(C)C[C@@H](C(=O)NCCC(c1ccccc1)c1ccccc1)N(C)C1CCCCC1 [Example 25, (S)-2-(Cyclohexyl-methyl-amino)-4-methyl-pentanoic acid (3,3-diphenyl-propyl)-amide monohydrochloride] | 800 | 990 | – | – |
| CC(C)C[C@@H](C(=O)NCCCC(c1ccc(F)cc1)c1ccc(F)cc1)N(C)C1CCOCC1 [Example 27, (S)-4-Methyl-2-[methyl-(tetrahydro-pyran-4-yl)-amino]-pentanoic acid [4,4-bis-(4-fluoro-phenyl)-butyl]-amide monohydrochloride] | 450 | 1200 | – | – |
| CC(C)C[C@@H](NC(=O)N1CCCCCC1)C(=O)N1CCN(C(c2ccc(F)cc2)c2ccc(F)cc2)CC1 [Example 34, (R)-Azepane-1-carboxylic acid {1-(4-[bis-(4-fluoro-phenyl)-methyl]-piperazine-1-carbonyl}-3-methyl-butyl)-amide] | 630 | 1890 | – | – |
| CC(C)C[C@@H](CN1CCN(C(c2ccc(F)cc2)c2ccc(F)cc2)CC1)NC(=O)OC(C)(C)C [Example 35, (S)-(1-{4-[Bis-(4-fluoro-phenyl)-methyl]-piperazin-1-ylmethyl}-3-methyl-butyl)-carbamic acid tert-butyl ester] | 360 | 500 | – | – |
| CC(C)C[C@@H](C(=O)N1CCN(C(c2ccc(F)cc2)c2ccc(F)cc2)CC1)N1CCCCC1 [Example 37, (S)-1-{4-[Bis-(4-fluoro-phenyl)-methyl]-piperazin-1-yl}-4-methyl-2-piperidin-1-yl-pentan-1-one] | 1400 | 2000 | – | – |

Second part, the compound after the results:

| IC50 [1] [nM] | IC50 [2] [nM] | inhibition at 1 µM [2] [%] | inhibition at 10 µM [2] [%] | SMILES |
| --- | --- | --- | --- | --- |
| 1000 | 3200 | – | – | CC(C)C[C@H](NC(C)C)C(=O)N1CCN(C(c2ccc(F)cc2)c2ccc(F)cc2)CC1 [Example 49, (S)-1-{4-[Bis-(4-fluoro-phenyl)-methyl]-piperazin-1-yl}-2-isopropylamino-4-methyl-pentan-1-one monohydrochloride] |
| 420 | – | – | 99 | CC(C)C[C@H](NCc1ccccc1)C(=O)N1CCN(C(c2ccc(F)cc2)c2ccc(F)cc2)CC1 [Example 62, (S)-2-Benzylamino-1-{4-[bis-(4-fluoro-phenyl)-methyl]-piperazin-1-yl}-4-methyl-pentan-1-one] |
| 1100 | – | – | – | CC(C)C[C@H](NC1CCOCC1)C(=O)N1CCN(C(c2ccc(F)cc2)c2ccc(F)cc2)CC1 [Example 63, (S)-1-{4-[Bis-(4-fluoro-phenyl)-methyl]-piperazin-1-yl}-4-methyl-2-(tetrahydro-pyran-4-ylamino)-pentan-1-one] |
| 680 | – | – | 83 | CC(C)N[C@H](C(=O)NCCCC(c1ccc(F)cc1)c1ccc(F)cc1)C(C)C [Example 65, (S)-N-[4,4-Bis-(4-fluoro-phenyl)-butyl]-2-isopropylamino-3-methyl-butyramide] |
| 510 | – | 34 | 94 | CCC(C)N[C@H](C(=O)NCCCC(c1ccc(F)cc1)c1ccc(F)cc1)C(C)C (stereo partly drawn) [Example 66, (S)-N-[4,4-Bis-(4-fluoro-phenyl)-butyl]-2-sec-butylamino-3-methyl-butyramide] |
| 530 | – | – | 97 | CC(C)C[C@@H](C(=O)NCCCC(c1ccc(F)cc1)c1ccc(F)cc1)N(C)C(C)C [Example 68, (S)-2-(Isopropyl-methyl-amino)-4-methyl-pentanoic acid [4,4-bis-(4-fluoro-phenyl)-butyl]-amide] |
| 400 | – | 34 | 99 | CC(C)[C@@H](C(=O)NCCCC(c1ccc(F)cc1)c1ccc(F)cc1)N(C)C1CCCCC1 [Example 69, (S)-N-[4,4-Bis-(4-fluoro-phenyl)-butyl]-2-(cyclohexyl-methyl-amino)-3-methyl-butyramide] |
